Measured values reported in patent US20210188843A1, “QUINOLINE COMPOUNDS AND THEIR PREPARATION AND USE AS ANTIMALARIAL AGENTS” (The United States of America,as represented by the …, priority 2018, published 2021).
Values after ≈ are worked out from the molar mass of the structure shown. Like-named read-outs stand apart in the source and are kept apart here.

Tests used:
[1] = tested on: Asexual parasites of P. falciparum strain 3D7; test: In vitro drug activity on asexual parasites (SYBR Green assay); assay type: cell-based; details: Plasmodium falciparum, P. falciparum 3D7 asexual stage, 72 h, read-out: Asexual EC50
Description: Cell culture. Asexual parasites of P. falciparum strain 3D7 were cultured as described previously [Trager W, et al., Journal of Parasitology 2005, 91: 484-486]. Stage III-V gametocytes were selected and enriched with 3-day treatment with 50 mM N-acetylglucosamine (NAG) and the following Percoll density gradient centrifugation after gametocyte production [Tanaka T Q, et al., Molecular and Biochemical Parasitology, 2011, 177: 160-163]. Gametocytes of HB3 and Dd2 strains were produced and then set up for assay in a similar process. HepG2 cells (ATCC, cat. no. 77400) were cultured in 175-cm^2 tissue culture flasks with 30 ml growth medium at 37° C. in a 5% CO2 humidified atmosphere. Growth medium was made with Dulbecco's Modified Eagle Medium with 10% fetal bovine serum (FBS). Growth medium was replaced every other day and cells were passed at 75% confluence.
Asexual parasites of P. falciparum strain 3D7 were cultured as described previously (Trager, W. et al., J. Parasitol. 2005, 91(3): 484-486). Drug activity on asexual stage parasites was tested using a SYBR Green assay as described previously (Eastman, R. T. et al., Antimicrob. Agents Chemother. 2013, 57(1): 425-435; Smilkstein, M. et al., Antimicrob. Agents Chemother. 2004, 48(5): 1803-1806). Briefly, parasites were diluted to 0.5% parasitemia in complete culture medium with 2% hematocrit and drugs diluted in DMSO (<0.5%) and were loaded into a 96-well plate (200 μl/well). No drug and RBC alone wells were included as positive and background controls, respectively, and each testing condition was examined in duplicated. After 72 h incubation under the standard culture condition and a freeze-thaw lysis step at −80° C. and room temperature, 100 μl/well of lysis buffer containing SYBR Green I was added to the parasite culture and incubated for 30 min at room temperature. The fluorescence of each well was measured at 520 nm following excitation at 490 nm using a FLUOstar Optima™ microplate reader (BMG Labtech).
Compounds were screened against gametocytes and asexual parasites as described in Examples 1 and 2.

[2] = Microsomal stability (rat); assay type: in vitro ADME; details: rat microsomes
[3] = Solubility pH 7.4; assay type: physicochemical; details: aqueous buffer
[4] = Table 1, read-out: Microsomal Stability (rat) T1/2

SMILES | EC50 ([1]; Table 3) | half-life ([2]; Table 3, read-out: Microsomal Stability (rat) T1/2) | solubility ([3]; Table 3) | EC50 ([1]; Table 1) | half-life [2, 4] | solubility ([3]; Table 1)
Cn1c(=N)n(-c2nccc(N)n2)c2c3cc(-c4cccc(F)c4)ccc3ncc21 | 1570 nM | > 30 min | 5.2 µg/mL (≈ 13.5 µM) | – | – | –
Cc1ccc(C#N)cc1-n1c(=N)n(C)c2cnc3ccc(-c4ccc(C(N)=O)s4)cc3c21 [Compound 1, 5-(1-(5-cyano-2-methylphenyl)-2-imino-3-methyl-2,3-dihydro-1H-imidazo[4,5-c]quinolin-8-yl)thiophene-2-carboxamide] | – | – | – | 8.36 nM | > 30 min | 14.2 µg/mL (≈ 32.4 µM)
Cc1ccc(C#N)cc1-n1c(=N)n(C)c2cnc3ccc(-c4ccc(N)nc4)cc3c21 [Compound 2, 3-(8-(6-aminopyridin-3-yl)-2-imino-3-methyl-2,3-dihydro-H-imidazo[4,5-c]quinolin-1-yl)-4-methylbenzonitrile] | – | – | – | 5.31 nM | > 30 min | > 60 µg/mL
Cc1ccc(C#N)cc1-n1c(=N)n(C)c2cnc3ccc(-c4ccc5c(c4)CC(=O)N5)cc3c21 [Compound 3, 3-(2-imino-3-methyl-8-(2-oxoindolin-5-yl)-2,3-dihydro-1H-imidazo[4,5-c]quinolin-1-yl)-4-methylbenzonitrile] | – | – | – | 20.3 nM | > 30 min | 3.6 µg/mL (≈ 8.1 µM)
CCc1ccc(C#N)cc1-n1c(=N)n(C)c2cnc3ccc(-c4ccc(Cl)cc4)cc3c21 [Compound 7, 3-(8-(4-chlorophenyl)-2-imino-3-methyl-2,3-dihydro-1H-imidazo[4,5-c]quinolin-1-yl)-4-ethylbenzonitrile] | – | – | – | 360 nM | > 30 min | 3.4 µg/mL (≈ 7.76 µM)
Cn1c(=N)n(-c2cc(C#N)ccc2F)c2c3cc(-c4ccc(Cl)cc4)ccc3ncc21 [Compound 10, 3-(8-(4-chlorophenyl)-2-imino-3-methyl-2,3-dihydro-1H-imidazo[4,5-c]quinolin-1-yl)-4-fluorobenzonitrile] | – | – | – | 24.4 nM | > 30 min | < 1 µg/mL
Cn1cc(-n2c(=N)n(C)c3cnc4ccc(-c5ccc(Cl)cc5)cc4c32)cn1 [Compound 13, 8-(4-chlorophenyl)-3-methyl-1-(1-methyl-1H-pyrazol-4-yl)-1,3-dihydro-2H-imidazo[4,5-c]quinolin-2-imine] | – | – | – | 477 nM | > 30 min | > 38 µg/mL
Cc1cc(N2CCNCC2)c(C#N)cc1-n1c(=N)n(C)c2cnc3ccc(-c4ccc(Cl)cc4)cc3c21 [Compound 14, 5-(8-(4-chlorophenyl)-2-imino-3-methyl-2,3-dihydro-1H-imidazo[4,5-c]quinolin-1-yl)-4-methyl-2-(piperazin-1-yl)benzonitrile] | – | – | – | 175 nM | > 30 min | < 1 µg/mL
Cc1cc(N2CCN(C(=O)OC(C)(C)C)CC2)c(C#N)cc1-n1c(=N)n(C)c2cnc3ccc(-c4ccc(Cl)cc4)cc3c21 [Compound 15, tert-butyl 4-(4-(8-(4-chlorophenyl)-2-imino-3-methyl-2,3-dihydro-1H-imidazo[4,5-c]quinolin-1-yl)-2-cyano-5-methylphenyl)piperazine-1-carboxylate] | – | – | – | 591 nM | > 30 min | < 1 µg/mL
Cc1ccc(S(=O)(=O)/N=c2\n(C)c3cnc4ccc(-c5ccc(Cl)cc5)cc4c3n2-c2cc(C#N)ccc2C)cc1 [Compound 16, (E)-N-(8-(4-chlorophenyl)-1-(5-cyano-2-methylphenyl)-3-methyl-1,3-dihydro-2H-imidazo[4,5-c]quinolin-2-ylidene)-4-methylbenzenesulfonamide] | – | – | – | 240 nM | 10.4 min | < 1 µg/mL
CCCC/N=c1\n(C)c2cnc3ccc(-c4ccc(Cl)cc4)cc3c2n1-c1cc(C#N)ccc1C [Compound 17, (E)-3-(2-(butylimino)-8-(4-chlorophenyl)-3-methyl-2,3-dihydro-1H-imidazo[4,5-c]quinolin-1-yl)-4-methylbenzonitrile] | – | – | – | 542 nM | > 30 min | 1.1 µg/mL (≈ 2.29 µM)
CCOc1ccc(C#N)cc1-n1c(=N)n(C)c2cnc3ccc(-c4ccc(Cl)cc4)cc3c21 [Compound 19, 3-(8-(4-chlorophenyl)-2-imino-3-methyl-2,3-dihydro-1H-imidazo[4,5-c]quinolin-1-yl)-4-ethoxybenzonitrile] | – | – | – | 778 nM | > 30 min | 26 µg/mL (≈ 57.3 µM)
Cc1ccc(C#N)cc1-n1/c(=N/S(C)(=O)=O)n(C)c2cnc3ccc(-c4ccc(Cl)cc4)cc3c21 [Compound 20, (E)-N-(8-(4-chlorophenyl)-1-(5-cyano-2-methylphenyl)-3-methyl-1,3-dihydro-2H-imidazo[4,5-c]quinolin-2-ylidene)methanesulfonamide] | – | – | – | 6.28 nM | > 30 min | < 1 µg/mL
Cc1ncc(C#N)cc1-n1c(=N)n(C)c2cnc3ccc(-c4ccc(Cl)cc4)cc3c21 [Compound 22, 5-(8-(4-chlorophenyl)-2-imino-3-methyl-2,3-dihydro-1H-imidazo[4,5-c]quinolin-1-yl)-6-methylnicotinonitrile] | – | – | – | 62.3 nM | > 30 min | 3.5 µg/mL (≈ 8.24 µM)
Cc1ccc(C#N)cc1-n1c(=N)n(C)c2cnc3ccc(-c4ccc(Cl)c(N)c4)cc3c21 [Compound 40, 3-(8-(3-amino-4-chlorophenyl)-2-imino-3-methyl-2,3-dihydro-1H-imidazo[4,5-c]quinolin-1-yl)-4-methylbenzonitrile] | – | – | – | 30.8 nM | > 30 min | > 43 µg/mL
Cn1c(=N)n(-c2cncc(C#N)c2)c2c3cc(-c4ccc(Cl)cc4)ccc3ncc21 [Compound 45, 5-(8-(4-chlorophenyl)-2-imino-3-methyl-2,3-dihydro-1H-imidazo[4,5-c]quinolin-1-yl)nicotinonitrile] | – | – | – | 130 nM | > 30 min | 7.8 µg/mL (≈ 19 µM)
Cn1c(=N)n(-c2cncc(C(N)=O)c2)c2c3cc(-c4ccc(Cl)cc4)ccc3ncc21 [Compound 46, 5-(8-(4-chlorophenyl)-2-imino-3-methyl-2,3-dihydro-1H-imidazo[4,5-c]quinolin-1-yl)nicotinamide] | – | – | – | 1760 nM | > 30 min | 19.9 µg/mL (≈ 46.4 µM)
Cc1nc(N2CCNCC2)c(C#N)cc1-n1c(=N)n(C)c2cnc3ccc(-c4ccc(Cl)cc4)cc3c21 [Compound 47, 5-(8-(4-chlorophenyl)-2-imino-3-methyl-2,3-dihydro-1H-imidazo[4,5-c]quinolin-1-yl)-6-methyl-2-(piperazin-1-yl)nicotinonitrile] | – | – | – | 69.7 nM | > 30 min | 6 µg/mL (≈ 11.8 µM)
Cn1c(=N)n(-c2cnc(N3CCOCC3)c(C#N)c2)c2c3cc(-c4ccc(Cl)cc4)ccc3ncc21 [Compound 50, 5-(8-(4-chlorophenyl)-2-imino-3-methyl-2,3-dihydro-1H-imidazo[4,5-c]quinolin-1-yl)-2-morpholinonicotinonitrile] | – | – | – | 309 nM | > 30 min | < 1 µg/mL
Cn1c(=N)n(-c2cc(C#N)ccc2OC(F)(F)F)c2c3cc(-c4ccc(Cl)cc4)ccc3ncc21 [Compound 54, 3-(8-(4-chlorophenyl)-2-imino-3-methyl-2,3-dihydro-1H-imidazo[4,5-c]quinolin-1-yl)-4-(trifluoromethoxy)benzonitrile] | – | – | – | 1420 nM | > 30 min | < 1 µg/mL
Cn1c(=N)n(C2CCN(C3CCOCC3)CC2)c2c3cc(-c4ccc(Cl)cc4)ccc3ncc21 [Compound 57, 8-(4-chlorophenyl)-3-methyl-1-(1-(tetrahydro-2H-pyran-4-yl)piperidin-4-yl)-1,3-dihydro-2H-imidazo[4,5-c]quinolin-2-imine] | – | – | – | 2520 nM | > 30 min | > 47 µg/mL
Cn1c(=N)n([C@H]2CC[C@@H](N3CCOCC3)CC2)c2c3cc(-c4ccc(Cl)cc4)ccc3ncc21 [Compound 59, 8-(4-chlorophenyl)-3-methyl-1-((1s,4s)-4-morpholinocyclohexyl)-1,3-dihydro-2H-imidazo[4,5-c]quinolin-2-imine] | – | – | – | 13200 nM | > 30 min | > 47 µg/mL
Cc1ccccc1-c1ccc2ncc3c(c2c1)n(-c1cc(C#N)ccc1C)c(=N)n3C [Compound 61, 3-(2-imino-3-methyl-8-(o-tolyl)-2,3-dihydro-1H-imidazo[4,5-c]quinolin-1-yl)-4-methylbenzonitrile] | – | – | – | 1720 nM | 10 min | 19.2 µg/mL (≈ 47.6 µM)
Cc1ccc(C#N)cc1-n1c(=N)n(C)c2cnc3ccc(-c4ccccc4Cl)cc3c21 [Compound 62, 3-(8-(2-chlorophenyl)-2-imino-3-methyl-2,3-dihydro-1H-imidazo[4,5-c]quinolin-1-yl)-4-methylbenzonitrile] | – | – | – | 704 nM | 18.5 min | 7.8 µg/mL (≈ 18.4 µM)
